The text below walks through data of patent US20110046385A1, “Polymorphs Of Prostaglandin Agonists And Methods For Making The Same” (priority 2007, published 2011).

In experiment [1] the test system is Bone Morphogenetic Protein 7 (BMP-7) expression in 293S cells transfected with EP2. Put plainly: Kidney regeneration assay: BMP-7 expression (Northern blot) in EP2 293S cells. Type of experiment: cell-based, human. The settings on record: 10^-6M, RNA at 8, 16 and 24 hours. The protocol:
(§1) Methods: 293S and EP2 293S cells are grown in Dulbecco's Modified Eagle medium (DMEM, Gibco, BRL; Gaithersburg, Md.). […] Cells are harvested and RNA is extracted at 8, 16 and 24 hours. Northern blot analysis of total RNA ([…]) is carried out by probing the blots with ^32P-labeled BMP-7 probe. The blots are normalized for RNA loading by hybridization with ^32P-labeled 18s ribosomal RNA probe. […] Given the known role of BMP-7 in kidney regeneration and the ability of an prostaglandin agonist to induce BMP-7 expression in 293S kidney cells in a time and receptor specific manner indicates a role for prostaglandin agonist in kidney regeneration.

Experiment [2] deals with trabecular bone in the tibial metaphysis. The following applies: daily intraosseous injections into left tibia metaphysis for 14 days; cited from earlier work.
Experiment [3] relates to Bone Morphogenetic Protein 7 (BMP-7) expression in wild type 293S cells. Put plainly: Kidney regeneration assay: BMP-7 expression (Northern blot) in wild type 293S cells. Type of experiment: cell-based, human. The following applies: parental 293S cell line, 10^-6M, RNA at 8, 16 and 24 hours. The protocol: as §1
The test system of the next experiment is rib fracture site. The settings on record: adult beagles, 0.2 mg injected into rib fracture sites twice a day for 10 days; cited from earlier work.
In the next experiment the test system is tibia defect site. The settings on record: beagles, 0.2 mg/kg injected into tibia defect site twice a day for 10 days; cited from earlier work.
Experiment [4] relates to alveolar bone in the mandible. The settings on record: dogs, local infusion for 3 weeks, 500 to 2000 μg per week; cited from earlier work.

For the molecule `CCCCC[C@H](O)/C=C/[C@H]1[C@H](O)CC(=O)[C@@H]1C/C=C\CCCC(=O)O` [PGE2, prostaglandin E2], the “induction of BMP-7 expression” value is “induce the expression of BMP-7 in the EP2 293S cells in a time dependent manner” in experiment [1] and “generally not observed” in experiment [3]. The “trabecular bone in the metaphysis” value in experiment [2] was “significant increase of trabecular bone in the metaphysis”.
With `CCCCC[C@H](O)/C=C/[C@H]1[C@H](O)CC(=O)[C@@H]1CCCCCCC(=O)O` [PGE1, prostaglandin E1], in the experiment with rib fracture site, the “bone matrix formation at fracture site” value was “induced bone matrix formation on the periosteal envelope adjacent to the fracture site and its contralateral matching site”. In the experiment on tibia defect site, the “periosteal and cortical endosteal bone formation” value is “more periosteal and cortical endosteal bone formation, with an increased amount of osteoid present”. In experiment [4], the alveolar bone formation result is reported as “dramatic, localized formation of alveolar bone”.
